Values of other authors in patent US20140287011A1, “ARTHROPOD PEST CONTROL COMPOSITION” (SUMITOMO CHEMICAL COMPANY, LIMITED, priority 2011, published 2014).

Details: water at 20° C.

SMILES: CCOc1cc(C(C)(C)C)ccc1C1COC(c2c(F)cccc2F)=N1 (stereo not shown) [the present oxazole compound, 2-(2,6-difluorophenyl)-4-[4-(1,1-dimethylethyl)-2-ethoxyphenyl]-4,5-dihydrooxazole]
- solubility: 75.4 pg per 1 liter
